# Values of other authors, collected in article PMC6095934, “Impact of rifampicin-inhibitable transport on the liver distribution and tissue kinetics of erlotinib assessed with PET imaging in rats” (EJNMMI Research, 2018).
# How the values were obtained:
# OAT1 [1] = system: OAT1; design: method as in PMID 21088257
# [2] = NSCLC patients, 150 mg erlotinib once daily
# MRP2 (ABCC2) [3] = system: MRP2 (ABCC2); design: method as in PMID 18723475
# human OATP2B1 [4] = conditions: in vitro, transfected cells
# OAT3 [5] = system: OAT3; design: method as in PMID 21088257
# OAT2 = system: OAT2; design: method as in PMID 21088257
# OCT2 [6] = system: OCT2; design: method as in PMID 21088257, PMID 26976869
# human OATP2B1 [7] = system: human OATP2B1
# MRP2 (ABCC2) [8] = system: MRP2 (ABCC2); design: method as in PMID 23440558; conditions: canalicular side of hepatocytes
# OAT1 [9] = system: OAT1
# [10] = system: organic anion transporter 2 (OAT2, SLC22A7); conditions: in vitro
# [11] = system: organic cation transporter 1 (OCT1, SLC22A1)
# OCT2 [12] = system: OCT2; design: method as in PMID 21088257, PMID 26976869; remark: listed apart in the source
# OATP4C1 = system: OATP4C1; design: method as in PMID 28550055
# OAT3 [13] = system: OAT3
Compound,transport by OAT1 (OAT1 [1]),interpatient variability in area under the curve (AUC) [2],interpatient variability in trough plasma concentrations [2],substrate of MRP2 (MRP2 (ABCC2) [3]),transport by human OATP2B1 (human OATP2B1 [4]),substrate of OAT3 (OAT3 [5]),transport by OAT2 (OAT2),substrate of OCT2 (OCT2 [6]),IC50 (human OATP2B1 [7]),Ki (rOATP1A1),inhibition of MRP2 (MRP2 (ABCC2) [8]),inhibition of OAT1 (OAT1 [9]),inhibition of OAT2 [10],IC50 (human OATP1B1),Ki [11],inhibition of OCT2 (OCT2 [12]),inhibition of OATP4C1 (OATP4C1),inhibition of OAT3 (OAT3 [13]),IC50 (human OATP1B3),Ki (rOATP1B2)
"C#Cc1cccc(Nc2ncnc3cc(OCCOC)c(OCCOC)cc23)c1 [erlotinib, Erlotinib]",neither transported,51%,64%,not a substrate,specifically transported,substrate,neither transported,substrate,–,–,–,–,–,–,–,–,–,–,–,–
"CO[C@H]1/C=C/O[C@@]2(C)Oc3c(C)c(O)c4c(O)c(c(/C=N/N5CCN(C)CC5)c(O)c4c3C2=O)NC(=O)/C(C)=C\C=C\[C@H](C)[C@H](O)[C@@H](C)[C@@H](O)[C@@H](C)[C@H](OC(C)=O)[C@@H]1C [rifampicin, Rifampicin]",–,–,–,–,–,–,–,–,91 ± 14.6 µM,18 µM,potent inhibitor,inhibitor,inhibited neither,1.9 ± 0.16 µM,> 100 µM,not inhibited,not an inhibitor,not,6.4 ± 0.5 µM,0.79 µM
